Experimental data as given in publication PMC8967249, “Discovery of Novel HPK1 Inhibitors Through Structure-Based Virtual Screening” (Frontiers in Pharmacology, 2022).
Read-outs that look alike come from different tables or passages of the source.

Assays:
HPK1 kinase [1] = biological target: T1, HPK1 kinase (Homo sapiens, UniProt Q92918); assay: In vitro HPK1 kinase inhibition assay (Caliper mobility shift assay); settings: for inhibition at 50 µM: read-out: Inhibition (%) 50 μM, 50 μM, duplicate, mean ± SD
T1 sequence (Q92918 whole entry): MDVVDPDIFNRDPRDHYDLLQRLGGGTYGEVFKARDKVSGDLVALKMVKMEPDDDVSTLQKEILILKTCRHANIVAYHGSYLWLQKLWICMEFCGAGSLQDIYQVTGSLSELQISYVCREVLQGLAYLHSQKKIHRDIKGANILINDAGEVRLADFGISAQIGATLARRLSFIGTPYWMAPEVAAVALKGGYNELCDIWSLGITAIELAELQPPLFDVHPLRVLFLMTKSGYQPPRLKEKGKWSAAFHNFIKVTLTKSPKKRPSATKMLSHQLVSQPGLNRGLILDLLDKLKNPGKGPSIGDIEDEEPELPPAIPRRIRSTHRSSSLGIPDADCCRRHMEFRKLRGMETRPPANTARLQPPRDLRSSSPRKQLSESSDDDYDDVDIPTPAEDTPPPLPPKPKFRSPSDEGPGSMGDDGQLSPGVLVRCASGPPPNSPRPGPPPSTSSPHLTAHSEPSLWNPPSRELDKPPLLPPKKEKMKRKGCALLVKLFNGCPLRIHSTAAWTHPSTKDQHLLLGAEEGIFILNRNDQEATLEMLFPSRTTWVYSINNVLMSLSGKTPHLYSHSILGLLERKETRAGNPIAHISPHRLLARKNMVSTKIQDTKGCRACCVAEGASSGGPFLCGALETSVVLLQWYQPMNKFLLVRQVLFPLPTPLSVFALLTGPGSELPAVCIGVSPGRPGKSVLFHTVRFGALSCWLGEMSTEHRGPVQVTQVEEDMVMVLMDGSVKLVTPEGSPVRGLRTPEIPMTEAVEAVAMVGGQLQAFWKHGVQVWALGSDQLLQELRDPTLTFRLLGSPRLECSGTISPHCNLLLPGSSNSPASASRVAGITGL
Protocol: The mixture was centrifuged at 1,000 rpm for 30 s and then mixed and incubated at room temperature for 10 min. […] The plate was incubated at room temperature for 2 h. Finally, 30 μL terminated buffer was added to terminate the kinase reaction. Conversion rate data were read with Caliper EZ ReaderⅡ. The IC50 values of concentration-dependent curves were fitted by GraphPad Prism 6.0.

HPK1 = system: HPK1; set-up: method as in Wu et al. (2019); settings: ref Wu et al. (2019); cited from earlier work
WT HPK1 kinase = biological target: WT HPK1 kinase; set-up: method as in Johnson et al. (2019); settings: WT HPK1 kinase in vitro; ref Johnson et al. (2019); read-out: inhibition constant (Ki); cited from earlier work
SLP76 = system: SLP76; set-up: method as in Yu et al. (2021); settings: SLP76 PBMC assay; ref Yu et al. (2021); cited from earlier work
HPK1 kinase [2] = biological target: T1, HPK1 kinase; set-up: purchased Invitrogen PV6357; method as in Yu et al. (2021); settings: ref Yu et al. (2021); cited from earlier work

Question: For `O=C1Nc2ccc(Cl)cc2/C1=N/NC(=O)c1cc(Br)ccc1O` [2395-0114], which IC50 (HPK1 kinase [1]) is on record?
Answer: 9.59 ± 0.46 µM

Question: With `Cc1cccc(NC(=O)c2n[nH]c3ccccc23)c1` [8016-1815] as the molecule, how does the IC50 (HPK1 kinase [1]) read?
Answer: 7.55 ± 0.56 µM

Question: What about the inhibition at 50 µM (HPK1 kinase [1]) of the same molecule?
Answer: > 60%

Question: With `CC(C)n1ncc2cnc(Nc3cc(C4CCNC4)nc(N4CCC(F)(F)C4)n3)cc21` (centres unmarked) [GNE-1858] as the molecule, how does the IC50 (HPK1) read?
Answer: 1.9 nM

Question: With `O=C1CCc2cc(NC(=O)c3n[nH]c4ccccc34)ccc2N1` [M074-2865] as the molecule, how does the IC50 (HPK1 kinase [1]) read?
Answer: 2.93 ± 0.09 µM

Question: With `CCN(CC)CCNC(=O)c1c(C)[nH]c(/C=C2\C(=O)Nc3ccc(F)cc32)c1C` [Sunitinib] as the molecule, how does the Ki (WT HPK1 kinase) read?
Answer: ~10 nM

Question: Which IC50 (HPK1 kinase [1]) does the source give for `CCCC[C@@H](CC)CNC(=O)c1ccc(N/N=C2\C(=O)Nc3ccccc32)cc1` [V014-4726] here?
Answer: 14.3 ± 1.07 µM

Question: And the inhibition at 50 µM (HPK1 kinase [1])?
Answer: > 60%

Question: For `Cc1cc(C)c2c(c1)/C(=N/Nc1ccc(C(=O)N3CCC[C@@H]3C)cc1)C(=O)N2` [V030-2005], which IC50 (HPK1 kinase [1]) is on record?
Answer: 9.49 ± 0.54 µM

Question: Which results are given for `COc1cccc(F)c1-c1cc2c(cn1)cnn2-c1cccc(N2CCN(C)CC2)n1` [XHS]?
Answer: IC50 (SLP76): 600 nM; IC50 (HPK1 kinase [2]): 2.6 nM
